{"source": "patent US8183388B2", "about": "“Androgen receptor modulator and uses thereof” (Eli Lilly and Company, priority 2009, dated 2012)", "target": "T1, human androgen receptor (AR) (Homo sapiens, UniProt P10275)", "T1 construct": "expressed in transfected cells; host or cells: mouse myoblast C2C12 cells", "T1 sequence (P10275 1-920)": "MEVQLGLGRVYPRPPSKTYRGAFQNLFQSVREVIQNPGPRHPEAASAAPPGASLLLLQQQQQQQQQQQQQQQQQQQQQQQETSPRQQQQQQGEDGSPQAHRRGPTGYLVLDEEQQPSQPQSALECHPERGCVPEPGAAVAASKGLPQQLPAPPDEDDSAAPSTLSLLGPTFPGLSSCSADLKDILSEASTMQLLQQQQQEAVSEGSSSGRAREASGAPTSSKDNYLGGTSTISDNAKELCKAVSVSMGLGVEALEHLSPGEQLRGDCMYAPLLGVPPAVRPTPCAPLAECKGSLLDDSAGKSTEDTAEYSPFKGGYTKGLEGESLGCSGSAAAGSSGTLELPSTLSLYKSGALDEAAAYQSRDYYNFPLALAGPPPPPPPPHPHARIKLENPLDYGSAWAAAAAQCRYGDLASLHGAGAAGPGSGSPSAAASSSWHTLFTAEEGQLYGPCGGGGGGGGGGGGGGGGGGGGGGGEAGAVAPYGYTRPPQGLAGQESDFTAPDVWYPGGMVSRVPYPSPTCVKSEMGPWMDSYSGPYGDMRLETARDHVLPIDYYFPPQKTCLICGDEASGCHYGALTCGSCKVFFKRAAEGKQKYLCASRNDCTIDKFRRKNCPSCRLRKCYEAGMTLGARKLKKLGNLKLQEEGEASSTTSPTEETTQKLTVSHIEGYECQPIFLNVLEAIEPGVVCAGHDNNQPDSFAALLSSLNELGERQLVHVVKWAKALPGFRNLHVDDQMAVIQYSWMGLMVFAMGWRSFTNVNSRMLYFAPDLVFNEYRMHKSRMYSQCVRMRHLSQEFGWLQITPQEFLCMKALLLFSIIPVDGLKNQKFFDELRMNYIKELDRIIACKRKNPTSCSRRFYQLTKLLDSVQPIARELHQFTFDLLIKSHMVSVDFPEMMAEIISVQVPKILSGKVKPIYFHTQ", "test": "C2C12 AR/ARE reporter assay", "type": "cell-based", "settings": "mouse myoblast C2C12 cells, agonist mode, geometric mean of n=7; SD of about 0.08", "description": "As an indicator of agonist activity in muscle tissue, the C2C12 AR/ARE reporter assay is performed. Briefly, mouse myoblast C2C12 cells are co-transfected using Fugene™ reagent. A reporter plasmid containing a GRE/ARE (glucocorticoid response element/androgen response element) and TK promoter upstream of the luciferase reporter cDNA, is transfected with a plasmid constitutively expressing human androgen receptor (AR) using viral CMV promoter. Cells are transfected in T150 cm^2 flasks in DMEM media with 4% charcoal stripped Fetal Bovine Serum (FBS). After a 5 hour incubation, transfected cells are trypsinized, plated in 96 well dishes in DMEM media containing 4% charcoal-stripped FBS, incubated for 2 h and then exposed to various concentrations of test compounds ranging from about 0.01 nM to 10 μM. […] Data is fit to a 4 parameter-fit logistics to determine EC50 values. The % efficacy is determined versus maximum stimulation obtained with 10 nM methyltrienolone.", "note": "pEC50: −log10 of the molar value."}
{"smiles": "CC(C)OC(=O)N[C@H]1Cc2c(n(C[C@H]3OCC[C@@H]3O)c3ccc(C#N)cc23)C1", "note": "[compound of Formula (I), [(S)-7-Cyano-4-((2R,3S)-3-hydroxytetrahydrofuran-2-ylmethyl)-1,2,3,4-tetrahydrocyclopenta[b]indol-2-yl]-carbamic acid isopropyl ester]", "values": [{"measurement": "pEC50", "value": "~9.70"}]}
